# Several values for one entry are separate records, joined by “and”; a condition that tells them apart may be missing. Equal values may be shown once. Entries after “also recorded” stand apart in the source; their conditions may differ.
# Key:
# [1] = test system: male cynomolgus monkeys; experiment: Serum triglycerides of male cynomolgus monkeys treated by gastric intubation; format: in vivo, cynomolgus monkey; details: 1.0 mg/0.4 ml/kg by gastric intubation, daily; mean of 3 monkeys
# Experimental: Five male cynomologus monkeys were employed in the study. […] Compound 1 is an RAR antagonist or inhibitor. The remaining two were similarly treated with a vehicle to serve as control. Serum samples were collected on days 1, 8, 15, 22 and 25 for triglyceride determination. Serum samples from days 8, 15, 22 and 25 were also assayed for the concentration of Compound 1.
# [2] = Stability to normal light; format: physicochemical
# [3] = Serum concentration of Compound 1 in male cynomolgus monkeys; format: in vivo, cynomolgus monkey; details: given orally
# Experimental: (§1) Five male cynomologus monkeys were employed in the study. Three of the five monkeys were treated with Compound 1 at a daily dosage of 1.25 mg/kg (orally) for a period of 25 days. Compound 1 is an RAR antagonist or inhibitor. The remaining two were similarly treated with a vehicle to serve as control. Serum samples were collected on days 1, 8, 15, 22 and 25 for triglyceride determination. Serum samples from days 8, 15, 22 and 25 were also assayed for the concentration of Compound 1.
# [4] = test system: female ZDF rats; experiment: Serum triglycerides and cholesterol in female ZDF rats, Compound 1 and Compound 2 at 10 mg/kg; format: in vivo, rat; details: 10 mg/kg oral
# Experimental: A similar experiment to that described above was performed. Briefly, female ZDF rats (12 weeks old) were fed either a PM 5008 diet or a GMI 13004 diet. Control vehicle consisted of 2% DMSO and 98% corn oil. Compound 1 and Compound 2 were administered at a dosage of 10 mg/kg body weight. Dosings were administered at approximately 8 a.m. Serum was collected on the first day of dosing at approximately 8 a.m. (Day 1, 0 hour) and 2 p.m. (Day 1, 6 hour); the fourth day of dosing at approximately 8 a.m. (Day 4, 0 hour); and the last day of dosing at approximately 8 a.m. (Day 7, 0 hour) and 2 p.m. (Day 7, 6 hour). The levels of triglycerides and cholesterol in the serum samples were measured. The results are shown in Table 2 and are illustrated graphically in FIGS. 3A and 3B.
# [5] = test system: male SJL mice; experiment: Hepatic triglyceride (HTG) output after WR-1339 injection in fasted male SJL mice; format: in vivo, mouse; details: 20 mg/kg oral daily for 4 days; fasted
# Experimental: (§2) On day 4, animals were fasted after dosing, starting at 8 a.m. Following 6 hours of fasting, blood samples were collected prior to intravenous injection of WR-1339 at 100 mg/5 ml/kg. Additional serum samples were collected at 1 and 2 hours after WR-1339 injection. WR-1339 is a detergent that inactivates lipoprotein lipase and thus prevents the removal of triglycerides from circulation. By measuring the increase of STG after WR-1339 administration in fasted animals, the hepatic triglyceride (HTG) output during fasting can be estimated.
# (§3) Due to the lack of effect of Compound 3 at 20 mg/kg, the dose was increased to 100 mg/kg in the same set of mice. STG was determined on day 3 prior to dosing (Day 3, 8 a.m.). […] To ensure that Compound 3 would be bioavailable, Compound 3 was dissolved in DMSO and given by intraperitoneal injections, once at 4 p.m. on day 3 and once at 8 a.m. on day 4, at a dosage of 100 mg/kg/injection. Administration of WR-1339 and blood collections on day 4 were similarly conducted as described above.
# [6] = test system: male SJL mice; experiment: Serum triglycerides (STG) in male SJL mice; format: in vivo, mouse; details: 20 mg/kg oral daily
# Experimental: Male SJL mice were dosed orally with vehicle, Compound 1 (an RAR pan-antagonist), or Compound 3 (an RARE antagonist) for 4 consecutive days. The structure and synthesis of Compound 1 is described in Example I. The structure of Compound 3 is shown below, and the compound was synthesized using routine methods:
# The test compounds were dissolved in corn oil and given at a dosage/volume of 20 mg/5 ml/kg.
# On day 3, serum triglycerides (STG) were determined from samples collected at 7 a.m.
# as §2, §3
# [7] = test system: male cynomologus monkeys; experiment: Clinical observation, body weight and food consumption of treated monkeys; format: in vivo, cynomolgus monkey; details: daily 1.25 mg/kg orally for 25 days
# Experimental: as §1
# [8] = GMI 13004 diet, group mean of 5 rats, first day of dosing, 2 p.m.
# [9] = GMI 13004 diet, group mean of 5 rats, first day of dosing, about 8 a.m. (baseline)
# [10] = GMI 13004 diet, group mean of 5 rats, fourth day of dosing, 8 a.m.
# [11] = GMI 13004 diet, group mean of 5 rats, last day of dosing, 2 p.m.
# [12] = GMI 13004 diet, group mean of 5 rats, last day of dosing, 8 a.m.
# [13] = GMI 13004 diet, individual animals, first day of dosing, 2 p.m.
# [14] = GMI 13004 diet, individual animals, first day of dosing, about 8 a.m. (baseline)
# [15] = GMI 13004 diet, individual animals, fourth day of dosing, 8 a.m.
# [16] = GMI 13004 diet, individual animals, last day of dosing, 2 p.m.
# [17] = GMI 13004 diet, individual animals, last day of dosing, 8 a.m.
compound,measurement,setting,value
"CCc1ccc(C2=CC(C)(C)Sc3ccc(C#Cc4ccc(C(=O)O)cc4)cc32)cc1 [Compound 1, 4-[[4-(4-ethylphenyl)-2,2-dimethyl-(2H)-thiochromen-6-yl]-ethynyl]-benzoic acid]","Serum triglycerides Day 25, Mean",[1],24.0 mg/dL
same,stability to normal light,[2],relatively stable to normal light
same,oral absorption,[3],well absorbed
same,effect on lowering serum cholesterol,[4],more modest effect
same,serum triglycerides as % of pre-treatment levels,[4],about 7%
same,"Cholesterol day 1, 6 hr, Mean",[4]; [8],107
same,"Triglycerides day 1, 6 hr, Mean",[4]; [8],1183
same,"Cholesterol day 1, 0 hr, Mean",[4]; [9],131
same,"Triglycerides day 1, 0 hr, Mean",[4]; [9],1410
same,"Cholesterol day 4, 0 hr, Mean",[4]; [10],82
same,"Triglycerides day 4, 0 hr, Mean",[4]; [10],138
same,"Cholesterol day 7, 6 hr, Mean",[4]; [11],90
same,"Triglycerides day 7, 6 hr, Mean",[4]; [11],86
same,"Cholesterol day 7, 0 hr, Mean",[4]; [12],89
same,"Triglycerides day 7, 0 hr, Mean",[4]; [12],72
same,"Cholesterol day 1, 6 hr",[4]; [13],132 and 90 (2×) and 126 and 96
same,"Triglycerides day 1, 6 hr",[4]; [13],1248 and 750 and 1674 and 978 and 1266
same,"Cholesterol day 1, 0 hr",[4]; [14],162 and 108 (2×) and 156 and 120
same,"Triglycerides day 1, 0 hr",[4]; [14],1770 and 1182 and 1500 and 1278 and 1320
same,"Cholesterol day 4, 0 hr",[4]; [15],78 and 90 (2×) and 84 and 66
same,"Triglycerides day 4, 0 hr",[4]; [15],174 and 132 and 114 and 102 and 168
same,"Cholesterol day 7, 6 hr",[4]; [16],102 and 72 and 132 and 48 and 96
same,"Triglycerides day 7, 6 hr",[4]; [16],96 and 66 and 60 (2×) and 150
same,"Cholesterol day 7, 0 hr",[4]; [17],96 (2×) and 84 and 66 and 102
same,"Triglycerides day 7, 0 hr",[4]; [17],78 and 96 and 60 (2×) and 66
same,HTG output after WR-1339 injection,[5],reduction of HTG output
same,"non-fasting STG (Day 3, 8 a.m.)",[6],appeared to lower
same,"fasting STG (Day 4, 2 p.m.)",[6]; after 6 hours of fasting,but not fasting STG
same,body weight or rate of food consumption,[7],no change
same,general health / clinical signs,[7]; 1.25 mg/kg,appeared healthy; also recorded: without any noticeable abnormal clinical signs

# — patent US7105566B2, “Methods of treatment during vascular procedures” (Allergan, Inc., priority 2002, dated 2006)
